Test results from PubChem BioAssay (NCI).
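In this assay, cells in 96-well plates receive the compound at five concentrations for 48 hours. Endpoints are linearly interpolated between the surrounding concentrations. TGI denotes the concentration required for complete inhibition of growth.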

How the values were obtained:
Assay in all cases: DTP human tumour cell line panel, 48 h
[1] = system: 786-0 renal
[2] = system: A549 NSCLC
[3] = system: ACHN renal
[4] = system: BT-549 breast
[5] = system: CAKI-1 renal
[6] = system: CCRF-CEM leukemia
[7] = system: DU-145 prostate
[8] = system: EKVX NSCLC
[9] = system: HCC-2998 colon
[10] = system: HCT-116 colon
[11] = system: HCT-15 colon
[12] = system: HL-60(TB) leukemia
[13] = system: HOP-62 NSCLC
[14] = system: HS 578T breast
[15] = system: HT29 colon
[16] = system: IGROV1 ovarian
[17] = system: K-562 leukemia
[18] = system: KM12 colon
[19] = system: M14 melanoma
[20] = system: MCF7 breast
[21] = system: MDA-MB-231 breast
[22] = system: MDA-MB-435
[23] = system: MDA-N
[24] = system: MOLT-4 leukemia
[25] = system: NCI-H226 lung
[26] = system: NCI-H23 lung
[27] = system: NCI-H460 lung
[28] = system: NCI-H522 lung
[29] = system: NCI/ADR-RES ovarian
[30] = system: OVCAR-3 ovarian
[31] = system: OVCAR-4 ovarian
[32] = system: OVCAR-8 ovarian
[33] = system: PC-3 prostate
[34] = system: RPMI-8226 leukemia
[35] = system: RXF 393 renal
[36] = system: SF-268 CNS
[37] = system: SF-295 CNS
[38] = system: SF-539 CNS
[39] = system: SK-MEL-28 melanoma
[40] = system: SK-MEL-5 melanoma
[41] = system: SK-OV-3 ovarian
[42] = system: SN12C renal
[43] = system: SNB-19 CNS
[44] = system: SNB-75 CNS
[45] = system: SR leukemia
[46] = system: SW-620 colon
[47] = system: T-47D breast
[48] = system: TK-10 renal
[49] = system: U251 CNS
[50] = system: UACC-257 melanoma
[51] = system: UACC-62 melanoma
[52] = system: UO-31 renal
[53] = system: A498 renal
[54] = system: COLO 205 colon
[55] = system: LOX IMVI melanoma
[56] = system: MALME-3M melanoma
[57] = system: OVCAR-5 ovarian
[58] = system: SK-MEL-2 melanoma

COC(=O)[C@]1(C)CCC[C@@]2(C)C1CC[C@@]13C=C(C(C)C)[C@@H](CC1=O)CC23 (stereo not given in full)
TGI [1]: 60.7 µM | TGI [2]: > 100 µM | TGI [3]: 45.1 µM | TGI [4]: 63.4 µM | TGI [5]: 85.2 µM | TGI [6]: 42.4 µM | TGI [7]: > 100 µM | TGI [8]: 71.6 µM | TGI [9]: > 100 µM | TGI [10]: 42 µM | TGI [11]: 45.4 µM | TGI [12]: 36.4 µM | TGI [13]: 83.9 µM | TGI [14]: 43.9 µM | TGI [15]: 40.5 µM | TGI [16]: > 100 µM | TGI [17]: 30.2 µM | TGI [18]: > 100 µM | TGI [19]: > 100 µM | TGI [20]: 64 µM | TGI [21]: 95.7 µM | TGI [22]: > 100 µM | TGI [23]: > 100 µM | TGI [24]: 31 µM | TGI [25]: 39 µM | TGI [26]: > 100 µM | TGI [27]: > 100 µM | TGI [28]: 38.5 µM | TGI [29]: 67.5 µM | TGI [30]: 45.9 µM | TGI [31]: > 100 µM | TGI [32]: > 100 µM | TGI [33]: > 100 µM | TGI [34]: 40.1 µM | TGI [35]: 41.2 µM | TGI [36]: > 100 µM | TGI [37]: 68.3 µM | TGI [38]: 37.5 µM | TGI [39]: > 100 µM | TGI [40]: 33 µM | TGI [41]: > 100 µM | TGI [42]: 41.2 µM | TGI [43]: 73.4 µM | TGI [44]: > 100 µM | TGI [45]: 30.9 µM | TGI [46]: 83.6 µM | TGI [47]: > 100 µM | TGI [48]: > 100 µM | TGI [49]: 39.2 µM | TGI [50]: 62.4 µM | TGI [51]: > 100 µM | TGI [52]: 49 µM

CSC(=O)c1sc(SC)[n+](-c2ccccc2)c1O
TGI [1]: 32.7 µM | TGI [53]: > 100 µM | TGI [2]: > 100 µM | TGI [3]: > 100 µM | TGI [4]: 29.4 µM | TGI [6]: 38.1 µM | TGI [54]: > 100 µM | TGI [7]: 29.5 µM | TGI [9]: 44.8 µM | TGI [10]: 32.6 µM | TGI [11]: 54.3 µM | TGI [13]: 32.1 µM | TGI [14]: > 100 µM | TGI [15]: 46.5 µM | TGI [16]: 37.2 µM | TGI [17]: > 100 µM | TGI [55]: 44.8 µM | TGI [19]: 29.2 µM | TGI [56]: 56.6 µM | TGI [20]: 52.8 µM | TGI [21]: 39 µM | TGI [22]: 35.5 µM | TGI [23]: 37.1 µM | TGI [24]: 41.4 µM | TGI [25]: 52.9 µM | TGI [26]: 39.7 µM | TGI [27]: 86.3 µM | TGI [28]: 24.8 µM | TGI [29]: > 100 µM | TGI [30]: 26.2 µM | TGI [31]: 24.9 µM | TGI [57]: 49.6 µM | TGI [32]: 59.7 µM | TGI [33]: 29.8 µM | TGI [34]: > 100 µM | TGI [35]: 28 µM | TGI [36]: 31.2 µM | TGI [37]: 32 µM | TGI [38]: 29.5 µM | TGI [58]: 53.1 µM | TGI [39]: 34.9 µM | TGI [40]: 55.7 µM | TGI [41]: > 100 µM | TGI [42]: 38.8 µM | TGI [43]: 35.7 µM | TGI [44]: 27.2 µM | TGI [45]: > 100 µM | TGI [46]: 42.5 µM | TGI [47]: 29.5 µM | TGI [48]: 40.3 µM | TGI [49]: 30.1 µM | TGI [51]: 29.7 µM | TGI [52]: 31.4 µM
